Measurements taken from patent US20250312352A1, “GLP-1R MODULATING COMPOUNDS” (Gilead Sciences, Inc., priority 2021, published 2025).

The compounds below were run against T1, GLP-1R (Homo sapiens, UniProt P43220) (assay: GLP-1R activation cAMP assay (Assay 1 or Assay 2)). Conditions: cAMP increase in CHO cells stably expressing GLP-1R; compounds run on one of the two cAMP assays.
T1 construct: host or cells: CHO cells
Format: cell-based
Summary of the method: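 EC50 values come from a sigmoidal fit of HTRF-detected cAMP rise versus log agonist concentration. GLP-1R-expressing CHO cells, equilibrated 1 h at 37 °C in HBSS with HEPES and BSA, received a 10-point compound dose series for 30 min before detection.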

T1 sequence (P43220 24-463): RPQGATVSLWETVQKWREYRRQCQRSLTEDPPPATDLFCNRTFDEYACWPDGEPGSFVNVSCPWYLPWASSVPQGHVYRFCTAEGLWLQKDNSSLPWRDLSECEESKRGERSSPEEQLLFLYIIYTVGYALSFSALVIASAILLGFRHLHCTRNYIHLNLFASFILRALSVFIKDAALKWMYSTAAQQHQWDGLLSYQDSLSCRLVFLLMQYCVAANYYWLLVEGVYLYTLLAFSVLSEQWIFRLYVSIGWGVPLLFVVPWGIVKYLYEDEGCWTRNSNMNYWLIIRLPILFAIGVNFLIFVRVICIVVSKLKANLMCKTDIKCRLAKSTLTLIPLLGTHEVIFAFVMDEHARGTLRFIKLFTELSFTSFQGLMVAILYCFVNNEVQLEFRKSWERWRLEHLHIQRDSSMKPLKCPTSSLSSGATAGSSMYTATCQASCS

Row | SMILES | EC50
1 | O=C(O)c1cc(Cl)c2nc(Cc3cc(F)c(-c4cccc(OCc5ncc(C(F)(F)F)s5)n4)cc3F)n(C[C@@H]3CCO3)c2c1 [Example 445, (S)-4-chloro-2-(2,5-difluoro-4-(6-((5-(trifluoromethyl)thiazol-2-yl)methoxy)pyridin-2-yl)benzyl)-1-(oxetan-2-ylmethyl)-1H-benzo[d]imidazole-6-carboxylic acid] | 101 pM
2 | O=C(O)c1ccc2nc(Cc3c(F)cc(-c4cccc(OCc5ncc(C(F)(F)F)s5)n4)c(F)c3F)n(C[C@@H]3CCO3)c2c1 [Example 448, (S)-1-(oxetan-2-ylmethyl)-2-(2,3,6-trifluoro-4-(6-((5-(trifluoromethyl)thiazol-2-yl)methoxy)pyridin-2-yl)benzyl)-1H-benzo[d]imidazole-6-carboxylic acid] | 118 pM
3 | O=C(O)c1ccc2nc(Cc3cc(F)c(-c4cccc(OCc5cc6n(n5)CCCC6)n4)cc3F)n(C[C@@H]3CCO3)c2c1 [Example 70, (S)-2-(2,5-difluoro-4-(6-((4,5,6,7-tetrahydropyrazolo[1,5-a]pyridin-2-yl)methoxy)pyridin-2-yl)benzyl)-1-(oxetan-2-ylmethyl)-1H-benzo[d]imidazole-6-carboxylic acid] | 1930 pM
4 | O=C(O)c1ccc2nc(Cc3cc(F)c(-c4cccc(OCc5nnc(C(F)(F)F)s5)n4)cc3F)n(C[C@@H]3CCO3)c2c1 [Example 25, (S)-2-(2,5-difluoro-4-(6-((5-(trifluoromethyl)-1,3,4-thiadiazol-2-yl)methoxy)pyridin-2-yl)benzyl)-1-(oxetan-2-ylmethyl)-1H-benzo[d]imidazole-6-carboxylic acid] | 530 pM
5 | COc1cc(C(N)=O)ncc1COc1cccc(-c2cc(F)c(Cc3nc4ccc(C(=O)O)cc4n3C[C@@H]3CCO3)cc2F)n1 [Example 242, (S)-2-(4-(6-((6-carbamoyl-4-methoxypyridin-3-yl)methoxy)pyridin-2-yl)-2,5-difluorobenzyl)-1-(oxetan-2-ylmethyl)-1H-benzo[d]imidazole-6-carboxylic acid] | 20 pM
6 | N#CCCNC(=O)c1ccc(COc2cccc(-c3cc(F)c(Cc4nc5ccc(C(=O)O)cc5n4C[C@@H]4CCO4)cc3F)n2)cn1 [Example 375, (S)-2-(4-(6-((6-((2-cyanoethyl)carbamoyl)pyridin-3-yl)methoxy)pyridin-2-yl)-2,5-difluorobenzyl)-1-(oxetan-2-ylmethyl)-1H-benzo[d]imidazole-6-carboxylic acid] | 372 pM
7 | O=C(O)c1ccc2nc(Cc3cc(F)c(-c4cccc(OCc5cc6n(n5)CCC6)n4)cc3F)n(C[C@@H]3CCO3)c2c1 [Example 65, (S)-2-(4-(6-((5,6-dihydro-4H-pyrrolo[1,2-b]pyrazol-2-yl)methoxy)pyridin-2-yl)-2,5-difluorobenzyl)-1-(oxetan-2-ylmethyl)-1H-benzo[d]imidazole-6-carboxylic acid] | 190 pM
8 | O=C(O)c1ccc2nc(Cc3cc(F)c(-c4cccc(OCc5ncc(C#Cc6cn[nH]c6)cc5F)n4)cc3F)n(C[C@@H]3CCO3)c2c1 [Example 286, (S)-2-(4-(6-((5-((1H-pyrazol-4-yl)ethynyl)-3-fluoropyridin-2-yl)methoxy)pyridin-2-yl)-2,5-difluorobenzyl)-1-(oxetan-2-ylmethyl)-1H-benzo[d]imidazole-6-carboxylic acid] | 42 pM
9 | O=C(O)c1ccc2nc(Cc3cc(F)c(-c4cccc(OCc5ccn(-c6ccccc6)n5)n4)cc3F)n(C[C@@H]3CCO3)c2c1 [Example 120, (S)-2-(2,5-difluoro-4-(6-((1-phenyl-1H-pyrazol-3-yl)methoxy)pyridin-2-yl)benzyl)-1-(oxetan-2-ylmethyl)-1H-benzo[d]imidazole-6-carboxylic acid] | 2840 pM
10 | COCCn1c(Cc2cc(F)c(-c3cccc(OCc4ccc(-n5cnc(C6CC6)n5)nc4)n3)cc2F)nc2ccc(C(=O)O)cc21 [Example 250, 2-(4-(6-((6-(3-cyclopropyl-1H-1,2,4-triazol-1-yl)pyridin-3-yl)methoxy)pyridin-2-yl)-2,5-difluorobenzyl)-1-(2-methoxyethyl)-1H-benzo[d]imidazole-6-carboxylic acid] | 22600 pM

Further compounds by falling EC50, results first:

Row | EC50 | SMILES
11 | 1130 pM | NC(=O)c1ccc(COc2cccc(-c3cc(F)c(Cc4nc5ccc(C(=O)O)cc5n4C[C@@H]4CCO4)cc3F)n2)c(F)n1 [Example 240, 2-[[4-[6-[(6-carbamoyl-2-fluoro-3-pyridyl)methoxy]-2-pyridyl]-2,5-difluoro-phenyl]methyl]-3-[[(2S)-oxetan-2-yl]methyl]benzimidazole-5-carboxylic acid]
12 | 931 pM | Cc1cc(Cc2nc3c(F)cc(C(=O)O)cc3n2[C@@H]2COCC2(C)C)c(Cl)cc1-c1ccc(F)c(OCc2ncc(C(C)(F)F)s2)n1 [Example 426, (S)-2-(2-chloro-4-(6-((5-(1,1-difluoroethyl)thiazol-2-yl)methoxy)-5-fluoropyridin-2-yl)-5-methylbenzyl)-1-(4,4-dimethyltetrahydrofuran-3-yl)-4-fluoro-1H-benzo[d]imidazole-6-carboxylic acid]
13 | 537 pM | CC(C)(C)C#Cc1cnc(COc2cccc(-c3cc(F)c(Cc4nc5ccc(C(=O)O)cc5n4C[C@@H]4CCO4)cc3F)n2)s1 [Example 320, (S)-2-(4-(6-((5-(3,3-dimethylbut-1-yn-1-yl)thiazol-2-yl)methoxy)pyridin-2-yl)-2,5-difluorobenzyl)-1-(oxetan-2-ylmethyl)-1H-benzo[d]imidazole-6-carboxylic acid]
14 | 312 pM | COc1ncc(C#Cc2ccc(COc3cccc(-c4cc(F)c(Cc5nc6ccc(C(=O)O)cc6n5C[C@@H]5CCO5)cc4F)n3)c(F)n2)s1 [Example 277, (S)-2-(2,5-difluoro-4-(6-((2-fluoro-6-((2-methoxythiazol-5-yl)ethynyl)pyridin-3-yl)methoxy)pyridin-2-yl)benzyl)-1-(oxetan-2-ylmethyl)-1H-benzo[d]imidazole-6-carboxylic acid]
15 | 281 pM | O=C(O)c1ccc2nc(Cc3cc(F)c(-c4cccc(OCc5ncc(C#CC6(O)CCC6)s5)n4)cc3F)n(C[C@@H]3CCO3)c2c1 [Example 323, (S)-2-(2,5-difluoro-4-(6-((5-((1-hydroxycyclobutyl)ethynyl)thiazol-2-yl)methoxy)pyridin-2-yl)benzyl)-1-(oxetan-2-ylmethyl)-1H-benzo[d]imidazole-6-carboxylic acid]
16 | 270 pM | O=C(O)c1ccc2nc(Cc3cc(F)c(-c4cccc(OCc5ccc(-c6cn([C@H]7CCOC7)nn6)cc5F)n4)cc3F)n(C[C@@H]3CCO3)c2c1 [Example 217, 2-(2,5-difluoro-4-(6-((2-fluoro-4-(1-((S)-tetrahydrofuran-3-yl)-1H-1,2,3-triazol-4-yl)benzyl)oxy)pyridin-2-yl)benzyl)-1-(((S)-oxetan-2-yl)methyl)-1H-benzo[d]imidazole-6-carboxylic acid]
17 | 230 pM | Cn1ccc(-c2cnc(COc3cccc(-c4cc(F)c(Cc5nc6ccc(C(=O)O)cc6n5C[C@@H]5CCO5)cc4F)n3)s2)n1 [Example 103, (S)-2-(2,5-difluoro-4-(6-((5-(1-methyl-1H-pyrazol-3-yl)thiazol-2-yl)methoxy)pyridin-2-yl)benzyl)-1-(oxetan-2-ylmethyl)-1H-benzo[d]imidazole-6-carboxylic acid]
18 | 140 pM | O=C(O)c1ccc2nc(Cc3cc(F)c(-c4cccc(OCc5ncc(-c6cncs6)s5)n4)cc3F)n(C[C@@H]3CCO3)c2c1 [Example 101, (S)-2-(4-(6-([5,5′-bithiazol]-2-ylmethoxy)pyridin-2-yl)-2,5-difluorobenzyl)-1-(oxetan-2-ylmethyl)-1H-benzo[d]imidazole-6-carboxylic acid]
19 | 140 pM | CNC(=O)c1cc(Cl)c(COc2cccc(-c3cc(F)c(Cc4nc5ccc(C(=O)O)cc5n4C[C@@H]4CCO4)cc3F)n2)cn1 [Example 46, (S)-2-(4-(6-((4-chloro-6-(methylcarbamoyl)pyridin-3-yl)methoxy)pyridin-2-yl)-2,5-difluorobenzyl)-1-(oxetan-2-ylmethyl)-1H-benzo[d]imidazole-6-carboxylic acid]
20 | 123 pM | O=C(O)c1cc(F)c2nc(Cc3cc(F)c(-c4cccc(OCc5ncc(C(F)F)s5)n4)cc3F)n(C[C@@H]3CCO3)c2c1 [Example 324, (S)-2-(4-(6-((5-(difluoromethyl)thiazol-2-yl)methoxy)pyridin-2-yl)-2,5-difluorobenzyl)-4-fluoro-1-(oxetan-2-ylmethyl)-1H-benzo[d]imidazole-6-carboxylic acid]
21 | 120 pM | N#CC1(NC(=O)c2cc(Cl)c(COc3cccc(-c4cc(F)c(Cc5nc6ccc(C(=O)O)cc6n5C[C@@H]5CCO5)cc4F)n3)cn2)CC1 [Example 184, (S)-2-(4-(6-((4-chloro-6-((1-cyanocyclopropyl)carbamoyl)pyridin-3-yl)methoxy)pyridin-2-yl)-2,5-difluorobenzyl)-1-(oxetan-2-ylmethyl)-1H-benzo[d]imidazole-6-carboxylic acid]
22 | 100 pM | O=C(O)c1ccc2nc(Cc3cc(F)c(-c4cccc(OCc5ccc(-n6cc(C7CC7)nn6)nc5)n4)cc3F)n(C[C@@H]3CCO3)c2c1 [Example 212, (S)-2-(4-(6-((6-(4-cyclopropyl-1H-1,2,3-triazol-1-yl)pyridin-3-yl)methoxy)pyridin-2-yl)-2,5-difluorobenzyl)-1-(oxetan-2-ylmethyl)-1H-benzo[d]imidazole-6-carboxylic acid]
23 | 70 pM | O=C(O)c1ccc2nc(Cc3cc(F)c(-c4cccc(OCc5ncc(-c6cnn(C(F)F)c6)s5)n4)cc3F)n(C[C@@H]3CCO3)c2c1 [Example 84, (S)-2-(4-(6-((5-(1-(difluoromethyl)-1H-pyrazol-4-yl)thiazol-2-yl)methoxy)pyridin-2-yl)-2,5-difluorobenzyl)-1-(oxetan-2-ylmethyl)-1H-benzo[d]imidazole-6-carboxylic acid]
24 | 58 pM | CC(F)(F)c1cnc(COc2nc(-c3cc(F)c(Cc4nc5ccc(C(=O)O)cc5n4[C@@H]4COCC4(C)C)cc3F)ccc2F)s1 [Example 340, (S)-2-(4-(6-((5-(1,1-difluoroethyl)thiazol-2-yl)methoxy)-5-fluoropyridin-2-yl)-2,5-difluorobenzyl)-1-(4,4-dimethyltetrahydrofuran-3-yl)-1H-benzo[d]imidazole-6-carboxylic acid]
